Test results reported in patent US20100204158A1, “COMBINATION OF SPLENOPENTIN AND THYMOPENTIN AND THE USE THEREOF IN MEDICINE” (priority 2007, published 2010).
Residues, ends and D or L forms follow the SMILES beside them. No end group written: not given here.

Legend:
[1] = tested on: HIV-1IIIB; assay: HIV-1 antiviral assay in CEM-SS cells (MTS readout); format: cell-based
[2] = tested on: HCMV strain AD169; assay: HCMV plaque formation assay in MRC-5 cells; details: for inhibition of HCMV plaque formation as compared to the virus control experiment: 10 micrograms per ml, 7-10 days
[3] = tested on: murine spleen cells; assay: Th1/Th2 cytokine profiling assay (Ovalbumin-restimulated spleen cells, CBA kit); format: cell-based, Balb/c mice; details: 10 micrograms per ml, Ovalbumin restimulation, 72 hours
[4] = tested on: hepatitis B virus (HBV) ayw strain; assay: HBV experimental assay system (HepG2-2.2.15, TaqMan PCR of secreted HBV DNA); format: cell-based; details: 10 micrograms per ml; HepG2-2.2.15, six days, HBV DNA by TaqMan PCR
Text: HepG2-2.2.15 is a stable cell line containing the hepatitis B virus (HBV) ayw strain genome (ATCC Cat. No. CRL-11997). Antiviral compounds blocking any late step of viral replication such as transcription, translation, pregenome encapsidation, reverse transcription, particle assembly and release can be identified and characterized using this cell line. In this assay, an active compound will reduce the production of secreted HBV from cells, measured by utilizing real time quantitative PCR (TaqMan) assay to directly and accurately measure HBV DNA copies.
HepG2-2.2.15 cells were plated in 96-well microtiter plates. After 16-24 hours the confluent monolayer of HepG2-2.2.15 cells was washed and the medium was replaced with complete medium containing test peptides—10 micrograms per ml—in duplicate. […] Six days following the initial administration of the peptides, the cell culture supernatants was collected, treated with pronase and DNAse and then used in a real-time quantitative TaqMan PCR assay. The PCR-amplified HBV DNA was detected in real-time by monitoring increases in fluorescence signals that result from the exonucleolytic degradation of a quenched fluorescence probe molecule that hybridizes to the amplified HBV DNA. […] Antiviral activity was calculated from the reduction in HBV DNA levels (% virus control). […]

[5] = tested on: Primary Human endothelial cells (HUVEC); assay: Endothelial cell migration assay; format: cell-based; details: 10 micrograms per ml, 22 hours
[6] = tested on: HUVEC; assay: Endothelial tube formation assay; format: cell-based, human; details: 10 micrograms per ml, 20 hours
Text: Positive control was vehicle only.

Molecule | antiviral activity of positive control compounds (HIV-1) [1] | change of the production of TNF-alpha (in words) [3] | induction of the production of IL-2 [3] [%] | induction of the production of IL-4 [3] [%] | inhibition of HBV replication as compared to the virus control infection [4] [%] | inhibition of HCMV plaque formation as compared to the virus control experiment [2] | inhibition of the migration of human endothelial cells [5] | inhibition of the tube formation of human endothelial cells [6] [%] | other results
Cc1cn([C@H]2C[C@H](N=[N+]=[N-])[C@@H](CO)O2)c(=O)[nH]c1=O [AZT] | expected levels of antiviral activity |  |  |  |  |  |  |  | 
Nc1nc(O)c2ncn(COC(CO)CO)c2n1 [Ganciclovir, reference compound] |  |  |  |  |  |  |  |  | antiviral activity of positive control compound (HCMV) ([2]; positive control, HCMV AD169): expected levels of antiviral activity
CC(C)[C@H](NC(=O)[C@H](CC(=O)O)NC(=O)[C@H](CCCCN)NC(=O)[C@@H](N)CCCN=C(N)N)C(=O)N[C@@H](Cc1ccc(O)cc1)C(=O)O [Peptide 2, Arg-Lys-Asp-Val-Tyr-OH] (H-RKDVY-OH) |  | did not significantly change | 22.2 | 70.6 | 6.2 | 1.4% | 7% | 31 | decrease of the production of IFN-gamma [3]: 38.0%; decrease of the production of IL-5 [3]: 28.2%
CC(C)(C)NC(=O)[C@@H]1CN(Cc2cccnc2)CCN1C[C@@H](O)C[C@@H](Cc1ccccc1)C(=O)N[C@H]1c2ccccc2C[C@H]1O [indinavir] | expected levels of antiviral activity |  |  |  |  |  |  |  | 
Arg-Lys-Glu-Val-Tyr-OH (RKEVY-OH) [Peptide 1, Splenopentin, commercially available known peptide] |  | did not significantly change | 68.5 | 68.1 | 19.5 | no effect | did not inhibit | 22 | change of the production of IL-5 (in words) [3]: did not significantly change; induction of the production of IFN-γ [3]: 38.9%
